In article PMC6407913, “DREADD Agonist 21 Is an Effective Agonist for Muscarinic-Based DREADDs in Vitro and in Vivo” (ACS Pharmacology & Translational Science, 2018):
pKi: −log10 of the molar value. Where “and” joins values, the source holds several entries; their conditions need not be identical. Equal entries are not always repeated. Where two headings read alike, the source gives them in different places.

Experiments:
Test in all cases: NIMH PDSP radioligand binding, membranes
5-HT1A = molecular target: T1, 5-HT1A (Homo sapiens, UniProt P08908)
T1 construct: NIMH PDSP
T1 sequence (P08908 whole entry, species assumed): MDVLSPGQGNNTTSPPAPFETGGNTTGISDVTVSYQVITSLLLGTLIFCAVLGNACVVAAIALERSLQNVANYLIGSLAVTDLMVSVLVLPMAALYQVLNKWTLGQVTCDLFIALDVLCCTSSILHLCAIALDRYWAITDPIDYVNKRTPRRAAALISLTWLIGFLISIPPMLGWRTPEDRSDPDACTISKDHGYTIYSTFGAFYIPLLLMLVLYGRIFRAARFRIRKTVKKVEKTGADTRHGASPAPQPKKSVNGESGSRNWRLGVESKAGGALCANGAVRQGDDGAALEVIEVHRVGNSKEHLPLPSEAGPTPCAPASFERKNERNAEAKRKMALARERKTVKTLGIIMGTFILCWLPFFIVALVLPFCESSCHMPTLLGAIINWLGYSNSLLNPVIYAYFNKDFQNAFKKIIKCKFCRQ
Experimental: (§1) Radioligand binding assays with membrane preparations to determine binding affinity were carried out as outlined before[540] and by the National Institute of Mental Health’s Psychoactive Drug Screening Program (NIMH PDSP) (https://pdsp.unc.edu/), Contract # HHSN-271–2013–00017-C. The NIMH PDSP is Directed by B.L.R. at the University of North Carolina at Chapel Hill, Chapel Hill, NC, and Project Officer Jamie Driscoll at NIMH, Bethesda, MD.

5-HT2A = 5-HT2A (Homo sapiens, UniProt P28223)
5-HT2A, sequence (P28223 whole entry, species assumed): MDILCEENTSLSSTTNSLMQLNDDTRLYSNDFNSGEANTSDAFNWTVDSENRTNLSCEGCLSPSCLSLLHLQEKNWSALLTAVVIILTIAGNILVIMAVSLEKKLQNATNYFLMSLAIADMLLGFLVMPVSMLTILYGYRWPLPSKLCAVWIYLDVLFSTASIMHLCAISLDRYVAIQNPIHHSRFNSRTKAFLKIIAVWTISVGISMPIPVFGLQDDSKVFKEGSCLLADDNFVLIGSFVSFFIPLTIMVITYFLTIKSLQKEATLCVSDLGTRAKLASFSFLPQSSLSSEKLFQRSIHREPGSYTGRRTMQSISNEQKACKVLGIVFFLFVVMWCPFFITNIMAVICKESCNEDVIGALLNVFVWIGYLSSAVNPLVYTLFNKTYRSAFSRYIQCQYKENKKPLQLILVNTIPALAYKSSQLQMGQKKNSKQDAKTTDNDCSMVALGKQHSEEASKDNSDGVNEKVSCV
Experimental: as §1

5-HT2C = molecular target: T2, 5-HT2C (Homo sapiens, UniProt P28335)
T2 sequence (P28335 33-458): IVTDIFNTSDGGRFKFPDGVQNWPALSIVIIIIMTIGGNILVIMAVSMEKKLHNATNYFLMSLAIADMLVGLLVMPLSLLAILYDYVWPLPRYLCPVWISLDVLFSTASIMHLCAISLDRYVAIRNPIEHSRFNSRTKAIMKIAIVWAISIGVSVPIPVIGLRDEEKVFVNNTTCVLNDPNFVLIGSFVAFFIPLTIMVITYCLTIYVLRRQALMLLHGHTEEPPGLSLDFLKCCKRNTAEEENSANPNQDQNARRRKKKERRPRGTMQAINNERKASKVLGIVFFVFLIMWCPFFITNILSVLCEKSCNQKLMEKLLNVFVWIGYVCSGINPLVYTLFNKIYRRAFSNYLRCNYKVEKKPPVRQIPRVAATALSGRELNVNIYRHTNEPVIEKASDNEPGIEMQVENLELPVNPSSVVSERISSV
Experimental: as §1

5-HT3 = 5-HT3 (Homo sapiens, UniProt P46098)
5-HT3, sequence (P46098 24-478, species assumed): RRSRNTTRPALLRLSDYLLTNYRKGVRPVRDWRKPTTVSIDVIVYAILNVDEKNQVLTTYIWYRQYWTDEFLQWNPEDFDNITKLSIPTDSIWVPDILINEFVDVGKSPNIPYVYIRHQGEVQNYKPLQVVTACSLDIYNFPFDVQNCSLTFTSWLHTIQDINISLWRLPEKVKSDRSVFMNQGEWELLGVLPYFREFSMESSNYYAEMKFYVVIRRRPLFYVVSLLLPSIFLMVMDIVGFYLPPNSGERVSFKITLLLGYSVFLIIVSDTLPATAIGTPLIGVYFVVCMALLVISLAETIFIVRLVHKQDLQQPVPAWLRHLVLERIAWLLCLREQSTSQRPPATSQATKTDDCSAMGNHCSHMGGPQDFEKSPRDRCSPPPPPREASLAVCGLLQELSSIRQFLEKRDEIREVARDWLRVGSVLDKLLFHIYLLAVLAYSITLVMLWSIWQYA
Experimental: as §1

Alpha 1B = molecular target: T3, Alpha 1B (Homo sapiens, UniProt P35368)
T3 construct: NIMH PDSP
T3 sequence (P35368 1-520): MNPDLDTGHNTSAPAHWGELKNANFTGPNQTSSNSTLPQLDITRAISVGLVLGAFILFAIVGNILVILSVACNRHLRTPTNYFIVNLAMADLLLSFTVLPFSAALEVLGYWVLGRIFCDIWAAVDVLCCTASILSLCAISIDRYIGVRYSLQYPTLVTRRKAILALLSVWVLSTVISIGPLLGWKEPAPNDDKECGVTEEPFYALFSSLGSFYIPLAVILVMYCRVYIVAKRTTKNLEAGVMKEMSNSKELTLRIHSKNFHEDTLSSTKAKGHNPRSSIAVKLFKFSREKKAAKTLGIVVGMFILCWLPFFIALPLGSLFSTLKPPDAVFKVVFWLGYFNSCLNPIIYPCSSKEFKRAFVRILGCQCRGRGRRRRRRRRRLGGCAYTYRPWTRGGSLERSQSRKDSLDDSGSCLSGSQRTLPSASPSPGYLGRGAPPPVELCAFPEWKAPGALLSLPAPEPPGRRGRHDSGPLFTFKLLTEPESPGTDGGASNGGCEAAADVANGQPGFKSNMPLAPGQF
Experimental: as §1

Alpha1D = molecular target: T4, Alpha1D (Homo sapiens, UniProt P25100)
T4 construct: NIMH PDSP
T4 sequence (P25100 1-572): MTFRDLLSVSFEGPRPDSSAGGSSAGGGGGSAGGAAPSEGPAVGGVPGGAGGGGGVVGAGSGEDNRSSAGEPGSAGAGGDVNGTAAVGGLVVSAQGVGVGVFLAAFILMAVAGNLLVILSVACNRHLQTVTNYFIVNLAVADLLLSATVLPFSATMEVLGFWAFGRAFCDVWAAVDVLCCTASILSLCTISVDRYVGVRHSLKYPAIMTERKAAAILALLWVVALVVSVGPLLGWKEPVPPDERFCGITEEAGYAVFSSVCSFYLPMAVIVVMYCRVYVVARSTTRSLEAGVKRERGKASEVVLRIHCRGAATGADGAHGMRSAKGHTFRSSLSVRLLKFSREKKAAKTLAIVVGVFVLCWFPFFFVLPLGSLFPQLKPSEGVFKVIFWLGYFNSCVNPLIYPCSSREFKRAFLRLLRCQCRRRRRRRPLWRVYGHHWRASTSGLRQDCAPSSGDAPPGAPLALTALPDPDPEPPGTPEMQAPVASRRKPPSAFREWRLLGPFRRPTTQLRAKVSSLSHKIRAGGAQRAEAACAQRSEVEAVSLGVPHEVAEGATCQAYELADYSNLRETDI
Experimental: as §1

Alpha2B = molecular target: T5, Alpha2B (Homo sapiens, UniProt P18089)
T5 construct: NIMH PDSP
T5 sequence (P18089 whole entry): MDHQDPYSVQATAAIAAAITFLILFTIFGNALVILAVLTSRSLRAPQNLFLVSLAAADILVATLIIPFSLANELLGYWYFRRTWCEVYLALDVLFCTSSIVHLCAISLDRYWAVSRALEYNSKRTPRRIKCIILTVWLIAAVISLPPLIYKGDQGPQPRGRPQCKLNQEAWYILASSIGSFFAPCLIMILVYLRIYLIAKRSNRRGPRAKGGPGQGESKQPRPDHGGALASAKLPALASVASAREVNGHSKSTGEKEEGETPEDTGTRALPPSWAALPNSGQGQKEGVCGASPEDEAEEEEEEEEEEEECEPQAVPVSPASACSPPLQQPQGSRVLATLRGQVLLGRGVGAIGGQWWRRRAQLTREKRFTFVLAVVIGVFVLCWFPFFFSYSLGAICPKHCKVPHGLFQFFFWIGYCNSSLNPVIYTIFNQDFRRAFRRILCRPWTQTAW
Experimental: as §1

Beta1 = molecular target: T6, Beta1 (Homo sapiens, UniProt P08588)
T6 construct: NIMH PDSP
Experimental: as §1

Beta2 = Beta2 (Homo sapiens, UniProt P07550)
Experimental: as §1

Beta3 = molecular target: T7, Beta3 (Homo sapiens, UniProt P13945)
T7 construct: NIMH PDSP
Experimental: as §1

CB2 = molecular target: T8, CB2 (Homo sapiens, UniProt P34972)
T8 construct: NIMH PDSP
T8 sequence (P34972 whole entry, species assumed): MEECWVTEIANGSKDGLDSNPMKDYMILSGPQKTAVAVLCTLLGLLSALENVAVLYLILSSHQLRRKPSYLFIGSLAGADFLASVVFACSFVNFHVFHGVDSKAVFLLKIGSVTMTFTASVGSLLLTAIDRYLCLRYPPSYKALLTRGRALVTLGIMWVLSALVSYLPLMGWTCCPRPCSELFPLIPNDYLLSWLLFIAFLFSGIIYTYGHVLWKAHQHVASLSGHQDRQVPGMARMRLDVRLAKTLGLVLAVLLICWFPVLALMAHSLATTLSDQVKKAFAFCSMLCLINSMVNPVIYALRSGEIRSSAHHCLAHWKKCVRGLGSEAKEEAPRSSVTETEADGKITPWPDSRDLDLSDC
Experimental: as §1

D2 = D2 (Homo sapiens, UniProt P14416)
D2, sequence (P14416 whole entry): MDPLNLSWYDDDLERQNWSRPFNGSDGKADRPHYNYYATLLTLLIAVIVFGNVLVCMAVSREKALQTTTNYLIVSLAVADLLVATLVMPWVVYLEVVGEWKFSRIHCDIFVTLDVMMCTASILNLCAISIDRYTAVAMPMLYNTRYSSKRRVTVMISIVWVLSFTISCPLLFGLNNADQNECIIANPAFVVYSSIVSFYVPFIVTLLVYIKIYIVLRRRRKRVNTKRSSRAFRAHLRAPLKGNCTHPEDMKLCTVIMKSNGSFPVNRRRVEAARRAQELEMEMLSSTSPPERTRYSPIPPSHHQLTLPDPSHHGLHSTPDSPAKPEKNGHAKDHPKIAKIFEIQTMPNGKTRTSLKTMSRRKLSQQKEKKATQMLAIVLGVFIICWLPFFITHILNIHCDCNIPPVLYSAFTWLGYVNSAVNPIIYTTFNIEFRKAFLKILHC
Experimental: as §1

D3 = D3 (Homo sapiens, UniProt P35462)
D3, sequence (P35462 whole entry): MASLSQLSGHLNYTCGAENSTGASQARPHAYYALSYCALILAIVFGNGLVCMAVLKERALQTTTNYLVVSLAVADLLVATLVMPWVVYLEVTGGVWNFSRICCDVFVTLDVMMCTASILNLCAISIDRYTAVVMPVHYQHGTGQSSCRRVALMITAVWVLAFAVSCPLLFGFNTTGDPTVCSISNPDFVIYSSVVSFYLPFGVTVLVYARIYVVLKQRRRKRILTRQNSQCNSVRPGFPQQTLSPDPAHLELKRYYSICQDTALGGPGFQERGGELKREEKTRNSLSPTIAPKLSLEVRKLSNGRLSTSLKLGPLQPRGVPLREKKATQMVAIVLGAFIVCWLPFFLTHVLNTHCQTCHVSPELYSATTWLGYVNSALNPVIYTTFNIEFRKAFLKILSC
Experimental: as §1

D5 = D5 (Homo sapiens, UniProt P21918)
D5, sequence (P21918 whole entry): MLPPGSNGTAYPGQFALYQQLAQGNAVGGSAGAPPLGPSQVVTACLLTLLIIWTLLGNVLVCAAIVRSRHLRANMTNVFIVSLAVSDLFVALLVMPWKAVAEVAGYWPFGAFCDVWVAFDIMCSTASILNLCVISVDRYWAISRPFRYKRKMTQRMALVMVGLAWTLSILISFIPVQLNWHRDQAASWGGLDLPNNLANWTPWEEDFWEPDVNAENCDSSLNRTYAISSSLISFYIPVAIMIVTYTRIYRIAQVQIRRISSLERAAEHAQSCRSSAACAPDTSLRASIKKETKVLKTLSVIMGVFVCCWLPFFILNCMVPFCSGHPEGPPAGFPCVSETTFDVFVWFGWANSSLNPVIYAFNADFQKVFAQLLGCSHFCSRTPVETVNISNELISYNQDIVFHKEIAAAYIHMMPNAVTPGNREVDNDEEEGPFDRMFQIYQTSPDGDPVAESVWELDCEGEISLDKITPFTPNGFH
Experimental: as §1

DOR = DOR (Homo sapiens, UniProt P41143)
DOR, sequence (P41143 whole entry): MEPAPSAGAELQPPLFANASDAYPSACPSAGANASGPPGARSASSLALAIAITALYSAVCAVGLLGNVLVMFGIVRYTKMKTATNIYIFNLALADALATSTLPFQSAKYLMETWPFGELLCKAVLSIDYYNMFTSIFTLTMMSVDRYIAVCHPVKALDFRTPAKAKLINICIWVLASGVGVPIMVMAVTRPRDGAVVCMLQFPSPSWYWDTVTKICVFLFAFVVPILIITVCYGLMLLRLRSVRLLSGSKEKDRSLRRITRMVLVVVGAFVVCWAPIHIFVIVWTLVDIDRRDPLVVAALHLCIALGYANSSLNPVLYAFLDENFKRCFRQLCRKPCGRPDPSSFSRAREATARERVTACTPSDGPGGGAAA
Experimental: as §1

H3 = H3 (Homo sapiens, UniProt Q9Y5N1)
H3, sequence (Q9Y5N1 whole entry): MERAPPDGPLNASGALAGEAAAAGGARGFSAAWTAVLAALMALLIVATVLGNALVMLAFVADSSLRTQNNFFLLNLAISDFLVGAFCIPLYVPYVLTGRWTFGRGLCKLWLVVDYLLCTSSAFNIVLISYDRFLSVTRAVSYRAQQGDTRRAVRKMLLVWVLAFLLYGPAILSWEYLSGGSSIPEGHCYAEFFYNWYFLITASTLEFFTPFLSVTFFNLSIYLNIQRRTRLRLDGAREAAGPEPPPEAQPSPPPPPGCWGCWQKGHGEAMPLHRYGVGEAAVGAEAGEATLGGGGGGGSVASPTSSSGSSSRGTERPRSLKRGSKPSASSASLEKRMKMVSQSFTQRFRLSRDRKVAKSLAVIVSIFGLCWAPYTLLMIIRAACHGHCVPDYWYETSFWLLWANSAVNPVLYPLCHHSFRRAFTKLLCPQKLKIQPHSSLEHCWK
Experimental: as §1

M1 = M1 (Homo sapiens, UniProt P11229)
M1, sequence (P11229 whole entry): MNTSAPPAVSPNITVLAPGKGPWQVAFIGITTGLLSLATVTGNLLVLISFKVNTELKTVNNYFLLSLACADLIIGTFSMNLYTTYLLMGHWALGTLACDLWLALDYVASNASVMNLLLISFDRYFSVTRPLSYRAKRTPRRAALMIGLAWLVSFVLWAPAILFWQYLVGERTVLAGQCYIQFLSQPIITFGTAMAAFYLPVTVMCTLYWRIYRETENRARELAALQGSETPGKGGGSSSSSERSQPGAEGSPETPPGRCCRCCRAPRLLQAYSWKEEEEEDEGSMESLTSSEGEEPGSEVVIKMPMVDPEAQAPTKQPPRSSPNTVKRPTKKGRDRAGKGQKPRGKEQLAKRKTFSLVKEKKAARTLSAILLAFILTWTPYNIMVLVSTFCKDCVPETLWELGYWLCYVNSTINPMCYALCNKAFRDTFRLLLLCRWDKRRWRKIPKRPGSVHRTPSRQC
Experimental: as §1

[1] = read-out: Ki #1-#5 (individual assays)
[2] = read-out: log Ki (individual assays) (converted)

c1ccc2c(c1)N=C(N1CCNCC1)c1ccccc1N2 [C21, 11-(1-piperazinyl)-5H-dibenzo[b,e][1,4]diazepine]
pKi (5-HT1A; read-out: Ki): 7.09 | pKi (5-HT1A; [1]): 7.19 and 6.84 and 7.24 | pKi (5-HT2A; read-out: Ki): 7.35 | pKi (5-HT2A; [1]): 7.23 and 7.29 | Ki (5-HT2A; [2]): 28.8 nM | pKi (5-HT2C; read-out: Ki): 7.32 | pKi (5-HT2C; [1]): 7.32 and 7.24 | Ki (5-HT2C; [2]): 39.8 nM | pKi (5-HT3; read-out: Ki): 6.44 | pKi (5-HT3; [1]): 6.07 and 6.49 and 6.77 | log Ki (individual assays) (Alpha 1B): <5 | pKi (Alpha 1B; read-out: Ki): < 5.00 | pKi (Alpha 1B; [1]): < 5.00 | log Ki (individual assays) (Alpha1D): <5 | pKi (Alpha1D; read-out: Ki): < 5.00 | pKi (Alpha1D; [1]): < 5.00 | pKi (Alpha2B; read-out: Ki): 6.32 | pKi (Alpha2B; [1]): 5.82 and 6.80 and 6.61 and 6.07 | pKi (Beta1; read-out: Ki): < 5.00 | pKi (Beta1; [1]): < 5.00 | pKi (Beta2; read-out: Ki): < 5.00 | pKi (Beta2; [1]): < 5.00 | pKi (Beta3; read-out: Ki): < 5.00 | pKi (Beta3; [1]): < 5.00 | pKi (CB2; read-out: Ki): < 5.00 | pKi (CB2; [1]): < 5.00 | pKi (D2; read-out: Ki): 5.34 | pKi (D2; [1]): 5.56 and 5.32 and 5.13 | pKi (D3; read-out: Ki): 6.06 | pKi (D3; [1]): 5.82 and 5.93 and 6.43 | pKi (D5; read-out: Ki): 5.54 | pKi (D5; [1]): 5.39 and 5.78 and 5.44 | pKi (DOR; read-out: Ki): 6.41 | pKi (DOR; [1]): 6.16 and 6.62 and 6.43 and 6.44 | pKi (H3; read-out: Ki): 5.31 | pKi (H3; [1]): 5.16 and 5.34 and 5.41 | pKi (M1; read-out: Ki): 6.26 | pKi (M1; [1]): 6.16 and 6.52 and 6.11
